# Data: patent publication US12168803B2, “Compositions and methods for screening and diagnosis of prostate cancer” (DANA-FARBER CANCER INSTITUTE, INC., priority 2015, dated 2024)
# Columns and labels:
# LAPC4 cells [1] = assay: Cell growth / viability (Trypan Blue exclusion) of LAPC4 cells; type: cell-based, human
# Text: (§1) To interrogate the differential sensitivity to docetaxel of prostate cancer cells, two prostate cancer cell lines, LNCaP and LAPC4, were compared.
# (§2) LNCaP-Abl cell line was provided by Zoran Culig (Innsbruck Medical University). LNCaP-C42 cell line was obtained from ViroMed Laboratories (Minneapolis). LNCaP-104R2 cell line was provided by Shutsung Liao (University of Chicago), and LAPC-4 cell line was provided by Charles Sawyers (Memorial Sloan Kettering Cancer Center). These cells were maintained with 10% fetal bovine serum (FBS) (LNCaP, LNCaP-C42, LMCaP-AI, VCAP, 22RV1, LAPC4, PC3, and DU145) or 10% charcoal-stripped serum (CSS) (LNCaP-Abl, and LNCaP-104R2) at 37 c in 5% CO2.
# LNCaP cells = assay: Cell growth / viability (Trypan Blue exclusion) of LNCaP cells; type: cell-based, human
# Text: as §1, §2
# [2] = system: metastatic hormone sensitive prostate cancer (mHSPC); conditions: docetaxel given at the time of starting ADT for mHSPC; cited from earlier work
# [3] = system: metastatic castration-resistant prostate cancer (mCRPC); conditions: first-line; cited from earlier work
# [4] = system: docetaxel-resistant prostate cancer; conditions: docetaxel-resistant patients; cited from earlier work
# LAPC4 cells [5] = conditions: LAPC4, upon docetaxel treatment
# Text: as §1
compound,measurement,setting,value
CC(=O)O[C@@]12CO[C@@H]1C[C@H](O)[C@@]1(C)C(=O)[C@H](O)C3=C(C)[C@@H](OC(=O)[C@H](O)[C@@H](NC(=O)OC(C)(C)C)c4ccccc4)C[C@@](O)([C@@H](OC(=O)c4ccccc4)[C@H]21)C3(C)C [docetaxel],IC20,"LAPC4 cells [1]; Homo sapiens, LAPC4 cells, growth, read-out: IC20 concentration",5 nM
same,sensitivity of cells to docetaxel,"LAPC4 cells [1]; LAPC4, 10 nM docetaxel, absence of DHT",sensitive
same,IC20,"LNCaP cells; Homo sapiens, LNCaP cells, growth, read-out: IC20 concentration",0.5 nM
same,sensitivity of cells to docetaxel,"LNCaP cells; LNCaP, 10 nM docetaxel, absence of DHT",sensitive
same,OS,[2],57 months
same,improvement of OS,[2],13 months
same,prolongation of median overall survival (OS) over mitoxantrone,[3],~2 month
O=C1c2c(O)ccc(O)c2C(=O)c2c(NCCNCCO)ccc(NCCNCCO)c21 [mitoxantrone],median OS,[4],12.7 months
"C[C@]12CCC(=O)C[C@@H]1CC[C@@H]1[C@@H]2CC[C@]2(C)[C@@H](O)CC[C@@H]12 [DHT, dihydro-testosterone]",impact of DHT treatment on docetaxel sensitivity,LAPC4 cells [1]; LAPC4,dose-dependent
same,effect of DHT on viability in docetaxel,"LAPC4 cells [1]; LAPC4, 0.01 nM to 0.1 mM docetaxel, Trypan Blue exclusion",markedly increased
same,effect of 10 nM DHT on cell growth in the presence of docetaxel,"LAPC4 cells [1]; LAPC4, 10 nM docetaxel",restoration of cell growth
same,effect of DHT on viability against docetaxel,"LNCaP cells; LNCaP, 0.01 nM to 0.1 mM docetaxel, Trypan Blue exclusion",not significantly affected
same,effect of DHT on PARP cleavage,LAPC4 cells [5],specifically reduced
CNC(=O)c1ccc(N2C(=S)N(c3ccc(C#N)c(C(F)(F)F)c3)C(=O)C2(C)C)cc1F [enzalutamide],effect on viability of cells treated with docetaxel in DHT supplemented media,LAPC4 cells [1]; LAPC4,substantially reduced
same,effect on docetaxel sensitivity in the presence of DHT,"LAPC4 cells [1]; LAPC4, 10 nM docetaxel, DHT",resensitized the cells to docetaxel
CO[C@H]1C(=O)[C@]2(C)[C@@H](OC)C[C@H]3OC[C@@]3(OC(C)=O)[C@H]2[C@H](OC(=O)c2ccccc2)[C@]2(O)C[C@H](OC(=O)[C@H](O)[C@@H](NC(=O)OC(C)(C)C)c3ccccc3)C(C)=C1C2(C)C [cabazitaxel],improvement of median OS over mitoxantrone,[4],2.4 months
same,median OS,[4],15.1 months
